# Reference: patent US6803386B2, “Prostacyclin derivative containing compositions and methods of using the same for the treatment of cancer” (United Therapeutics Corporation, priority 2002, dated 2004)
# Key:
# [1] = system: human amelanotic melanoma cell line (LOX)
# Procedure: A live cell toxicity assay marketed as LIVE/DEAD Viability/Cytotoxicity Kit by Molecular Probes, Inc. of Eugene, Oreg., was obtained for the test. The assays were carried out in accordance with the manufacturers' instructions using the LOX cells. The LOX cells (10^4/well) were cultured and incubated in a carbon dioxide incubator at 37° C. overnight and then gently washed with PBS.
# Calcein Am (2 μM), a fluorescent dye available from Molecular Probes, Inc. for staining live cells, was added to the LOX cells. The Calcein-stained LOX cells were incubated at room temperature for about an hour. […] A positive fluorescence signal from the assay indicates the presence of viable cells in the test sample with the strength of the signal being proportional to the number of viable cells present.
# The live cell toxicity assay was carried out four times (n=4) for each test compound.
# [2] = system: human amelanotic melanoma cell line (LOX); test: Collagen degradation inhibition assay (fluorescent-labeled Type I collagen matrix seeded with LOX cells); assay type: cell-based; conditions: LOX cells on Type I collagen matrix, dosages 10^−12 to 10^−3 M, n=4
# [3] = system: human amelanotic melanoma cell line (LOX); test: Apoptosis assay (Vybrant Apoptosis Assay Kit #4, YO-PRO); assay type: cell-based; conditions: LOX cells, overnight incubation; dosages 10^−12 to 10^−3 M; n=4
# Procedure: An apoptosis assay marketed as Vybrant Apoptosis Assay Kit #4 from Molecular Probes, Inc., was obtained for the test. […] The apoptosis assay was performed four times (n=4) for each test compound.
compound,measurement,setting,value
"CCCCC[C@@H](O)CC[C@H]1[C@H](O)CC2Cc3c(cccc3OCC(=O)O)C[C@@H]21 (stereo partly drawn) [compound of Formula II, 9-Deoxy-2′,9α-methano-3-oxa-4,5,6-trinor-3,7-(1′,3′-interphenylene)-13,14-dihydro-PGF1]",dosage at which cell toxicity / inhibited cell viability was exhibited,[1],over 10^−6 M
same,IC50,[2]; Homo sapiens,10 nM
same,dosage at which collagen degradation activity by LOX cells was inhibited (lowest effective dosage),[2],2.5 nM
same,dosage at which a marked increase in the incidence of apoptosis was seen,[3],over 10^−4 M
